{
  "source": "patent US20020002140A1",
  "about": "“Novel bisphosphonates and uses thereof” (priority 2000, published 2002)",
  "key": {"[1]": {"tested_on": "bone cell suspension, including osteoclasts and other cell types", "conditions": "FIG. 3, concentrations up to 10^−4M, Sodium Salt", "excerpt": "Sterile, devitalized discs of dentine (diameter 4 mm) where prepared and placed in a 96 well tissue culture plate, one disc per well, and pre-wet overnight in α-MEM tissue culture medium supplemented with 10% fetal calf serum. The femora and tibiae where dissected from 18 day chick embryos and transferred into α-MEM culture medium supplemented with 10% fetal calf serum.\nThe bones were finely minced using a sharp scalpel and the resulting suspension was triturated using a sterile pipette and transferred to a sterile plastic tube. The suspension was allowed to stand for one minute so that fragments of bone and other debris settled and the upper layer containing a bone cell suspension, including osteoclasts and other cell types, was harvested.\nAliquots of this bone cell suspension were added to the culture wells containing the devitalized dentine discs. Cells where allowed to settle for between 2 and 24 hours. The medium was then removed and new medium containing the test reagents was added. Cells where cultured for periods of time up to 72 hours after which time the dentine discs were washed in PBS at 37° C., fixed in 4% glutaraldehyde in 0.2 M sodium cacodylate, and stained for 5 minutes in 1% (w/v) toluidine blue in 0.5% disodium tetraborate. Excess stain was removed by washing in 70% ethanol for one minute. The dentine discs were then washed in tap water and air-dried."}, "osteoclasts": {"tested_on": "osteoclasts", "experiment": "Assay of bone resorption in vitro (bone slice assay)", "assay_type": "cell-based", "conditions": "chick embryo bone cells on dentine discs; FIG. 1 (MH2 vs MH3), FIG. 2 (alendronate vs glucoside)", "experimental": "Resorption lacunae where identified and quantitated using an Olympus BH2 microscope fitted for incident light microscopy. The plan area of resorption was determined by point counting using a ×10 objective and a drawing tube. The total area of each disc was analyzed."}, "[2]": {"conditions": "given orally; cited from earlier work"}},
  "note": "Read-outs that look alike come from different tables or passages of the source.",
  "data": [
    {"molecule": "O=P([O-])(O)C(O)(CCCNC1O[C@H](CO)[C@@H](O)[C@H](O)[C@H]1O)P(=O)(O)O.[Na+]", "note": "(stereo partly shown) [glucoside, N-glucopyranosyl Alendronate Sodium Salt]", "values": [
      {"measurement": "toxicity (cell number)", "setting": "[1]", "result": "substantially no toxicity"},
      {"measurement": "toxicity (cell number)", "setting": "[1]; listed as alendronate glycoside", "result": "substantially less toxicity than unglycosylated alendronate"}
    ]},
    {"molecule": "CC(Nc1ccc(O)cc1)(P(=O)(O)O)P(=O)(O)O", "note": "[MH2, 1-((4-hydroxyphenyl)amino)ethylidene-1,1-diphosphonic acid]", "values": [
      {"measurement": "effect on bone resorption (plan area of resorption lacunae on dentine discs)", "setting": "osteoclasts", "result": "substantially less effect than MH3"}
    ]},
    {"molecule": "NCCCC(O)(P(=O)(O)O)P(=O)(O)O", "note": "[FOSAMAX, alendronate sodium]", "values": [
      {"measurement": "drug absorbed from the gut, on average", "setting": "[2]", "result": "about 0.7%"}
    ]}
  ]
}
